From patent publication US10647680B2, “Urea compound, preparation method therefor and medical use thereof” (Ancureall Pharmaceutical (Shanghai) Co., Ltd., priority 2016, dated 2020)

Columns and labels:
[1] = system: NCI-H460 (KRAS G61H mutant type); test: In vitro growth inhibition (GI50), NCI-H460; format: cell-based; conditions: Homo sapiens
From the text: Tumor cell line is an effective cell model for studying the inhibition of tumor cell growth or proliferation in vitro. In the present invention, a representative tumor cell line was selected to determine the cell growth inhibition activity of the present compound. All cell lines used were from ATCC, DSMZ, and the Cell Bank of the Chinese Academy of Sciences. Cell culture conditions and methods were in accordance with the requirements of each cell line. Cells were subcultured in vitro for no more than 3 passages each time, and as required, single-clone purification and identification of cell lines could be carried out.
The cell culture media used were RPMI1640 (Gibco), MEM (Gibco), McCOY'S5A (Gibco), and IMDM (Gibco). The complete medium was prepared by supplement with 5˜20% fetal calf serum (Gibco), 1% double-antibiotics (10000 units/mL penicillin and 10000 units/mL), 2 mM glutamine or 1 mM sodium pyruvate, respectively.
Human large cell lung cancer cell NCI-H460 (KRAS […] mutant type, ATCC), human non-small cell lung cancer cell line H1299 (NRAS Q61K mutant type, ATCC), human melanoma cell line A375 (BRAF V600E mutant type, Shanghai Cell Bank of Chinese Academy of Sciences), human colon cancer cell line HCT116 (KRAS G13D mutant type, Shanghai Cell Bank, Chinese Academy of Sciences) were cultured in a complete medium of 1×RPMI1640 (10% FBS), respectively. Human non-small cell lung cancer cells A549 (KRAS G12S mutant type, Shanghai Cell Bank, Chinese Academy of Sciences) were cultured in a complete medium of 1× Ham's supplemented with 10% FBS, 1% double antibody, and 2 mM glutamine.
Adherent cells were digested with 0.25% pancreatin-EDTA (Gibco). The suspension cells were collected by centrifugation. The supernatant was discarded and the cell pellet was resuspended and counted. Different cell concentrations (5˜10×10^4 cells/mL) were prepared according to the growth cycle of each cell line and then seeded on a 96-well plate (Corning), 100 μL/well. The cells were incubated overnight at 37° C., 5% CO2. The compounds were added to the cells on the second day with 2 wells in parallel. The final concentration of organic solvent shall not exceed 1%. The cells were continually incubated for 3 to 5 days, and then subjected to MTT assay.
The compound of the present invention and the control compound were dissolved in DMSO (Sigma) respectively, with the purity of more than 98%. The compound was stored in a concentration of 10 mM at −20° C. and diluted to 2- or 10-fold series prior to use.
Dojindo CCK8 reagent kit was used as MTT assay. THERMO […] FC meter was used as microplate reader.
For adherent cells, culture medium was removed and immediately replaced with the fresh prepared medium which contains 10% CCK8 reagent (100 μL/well). For the suspension cells, CCK8 was directly added to 10% of the final concentration. The cells were continually incubated for 1˜4 h. When a dark yellow color could be observed in the solvent control wells, the absorbance value at OD450 nm was measured and the cell growth rate was calculated according to the following formula: Cell Growth Rate (%)=100*(T−T0)/(C−T0) T=optical density of drug treatment cell well—optical density of blank control well; T0=optical density of cell well before drug treatment—optical density of blank control well; C=optical density of cell well of solvent control group—optical density of blank control well. The concentration value of 50% inhibition of cell growth (GI50) was calculated according to the drug concentration and cell growth rate curve. The experiment was independently repeated 1˜3 times, and subject to biological statistical analysis. 4. Experimental Results
Tumor cell growth inhibition test was performed by selecting representative compounds (compounds 4, 11, 12, 16, 27, 68, 71, 77, 79, 89 and 116 of the present invention). The initial concentration of the compound was 5,000 nM, then it was serially diluted by 2-fold or 10-fold to 0.01 nM. […]

[2] = system: MOLM-13 (FLT3 ITD+/− mutant type); test: In vitro growth inhibition (GI50), MOLM-13; format: cell-based, human; conditions: for GI50: Homo sapiens, MOLM-13, Cell lines of leukemia, read-out: GI 50 MOLM-13 FLT3 (ITD+/−); for inhibition activity against the growth of MOLM-13 cells compared with AC220: compared with the control compound AC220

Compound | GI50 [1] [nM] | GI50 [2] [nM] | inhibition activity against the growth of MOLM-13 cells compared with AC220 [2]
COCCOc1ccc2c(c1)ncn2-c1ccc(NC(=O)Nc2cc(C(C)(C)C)n[nH]2)cc1 [Compound 77, 1-(5-tert-butyl-2H-pyrazol-3-yl)-3-{4-[5-(2-methoxyl-ethoxyl)-benzimidazol-1-yl]-phenyl}-urea] | > 2500 | 0.01 to 0.1 | stronger inhibition activity
CC(C)(C)c1cc(NC(=O)Nc2ccc(-n3cnc4ccccc43)cc2)[nH]n1 [Compound 68, 1-(4-benzimidazol-1-yl-phenyl)-3-(5-tert-butyl-2H-pyrazol-3-yl)-urea] | > 2500 | 0.1 to 1 | 
CC(C)(C)c1cc(NC(=O)Nc2ccc(-n3cnc4ccc(OCCN5CCOCC5)cc43)cc2)no1 [Compound 27, 1-(5-tert-butyl-isoxazol-3-yl)-3-{4-[6-(2morpholin-4-yl-ethoxyl)-benzimidazol-1-yl]-phenyl}-urea] | > 2500 | 0.1 to 1 | 
CC(C)(C)c1cc(NC(=O)Nc2ccc(-n3cnc4cc(O)ccc43)cc2)no1 [Compound 4, 1-(5-tert-butyl-isoxazol-3-yl)-3-[4-(5-hydroxy-benzimidazol-1-yl)-phenyl]-urea] | > 2500 | 0.1 to 1 | 
CC(C)(C)c1cc(NC(=O)Nc2ccc(-n3cnc4cc(OCCO)ccc43)cc2)no1 [Compound 11, 1-(5-tert-butyl-isoxazol-3-yl)-3-{4-[5-(2-hydroxy-ethoxyl)-benzimidazol-1-yl]-phenyl]-urea] | > 2500 | 0.01 to 0.1 | stronger inhibition activity

The next lines start with results.

GI50 [1] [nM] | GI50 [2] [nM] | Compound | inhibition activity against the growth of MOLM-13 cells compared with AC220 [2]
> 2500 | 0.1 to 1 | CC(C)(C)c1cc(NC(=O)Nc2ccc(-n3cnc4cc(OCCN5CCOCC5)ccc43)cc2)no1 [Compound 16, 1-(5-tert-butyl-isoxazol-3-yl)-3-{4-[5-(2-morpholin-4-yl-ethoxyl)-benzimidazol-1-yl]-phenyl}-urea] | 
> 2500 | 10 to 100 | CC(C)(C)c1cc(N)n(C(=O)Nc2ccc(-n3cnc4ccccc43)cc2)n1 [Compound 116, 5-amino-3-tert-butyl-pyrazol-1-carboxylic acid (4-benzimidazol-1-yl-phenyl)-amide] | 
> 2500 | 0.1 to 1 | CC(C)(C)c1cc(NC(=O)Nc2ccc(-n3cnc4cc(OCCO)ccc43)cc2)[nH]n1 [Compound 79, 1-(5-tert-butyl-2H-pyrazol-3-yl)-3-{4-[5-(2-hydroxy-ethoxyl)-benzimidazol-1-yl]-phenyl]urea] | stronger inhibition activity
> 2500 | 0.1 to 1 | CC(C)(C)c1cc(NC(=O)Nc2ccc(-n3cnc4cc(OCCN5CCOCC5)ccc43)cc2)[nH]n1 [Compound 89, 1-(5-tert-butyl-2H-pyrazol-3-yl)-3-{4-[5-(2-morpholin-4-yl-ethoxyl)-benzimidazol-1-yl]-phenyl}-urea] | stronger inhibition activity
> 2500 | 0.01 to 0.1 | COc1ccc2c(c1)ncn2-c1ccc(NC(=O)Nc2cc(C(C)(C)C)n[nH]2)cc1 [Compound 71, 1-(5-tert-butyl-2H-pyrazol-3-yl)-3-[4-(5-methoxyl-benzimidazol-1-yl)-phenyl]-urea] | stronger inhibition activity
